Assay [1] relates to ECHCG. The experiment in a line: Post-emergence herbicidal action against ECHCG. The format is in vivo, Echinochloa crus-galli. As to conditions: 80 g/ha, visual assessment about 3 weeks after treatment vs untreated controls. The method, boiled down: (§1)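 Visual scoring about 3 weeks after treatment gave % herbicidal action relative to untreated plants (0% = control-like, 100% = plants dead). Compounds, as WP or EC with 0.2% wetting agent, were sprayed onto green parts at 600–800 l/ha. Plants had reached the one-leaf stage, 2–3 weeks after sowing in sandy loam under greenhouse conditions.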

The test system of assay [2] is SETVI. Description: Post-emergence herbicidal action against SETVI. In kind it is in vivo, Setaria viridis. The note with it: 80 g/ha, visual assessment about 3 weeks after treatment vs untreated controls. The method, boiled down:
as §1

The next assay concerns MATIN. Description: Pre-emergence herbicidal action against MATIN. The format is in vivo. As to conditions: 320 g/ha. The method, boiled down: (§2)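 Scoring is visual, 3 weeks post-application, on a 0 to 100% scale relative to untreated controls (100% = plants died). Treatment is pre-emergence: aqueous suspensions or emulsions applied to the covering soil at 600 to 800 L/ha with 0.2% wetting agent.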

In assay [3] the test system is DIGSA. Description: Post-emergence herbicidal action against DIGSA. As to conditions: 80 g/ha, visual assessment about 3 weeks after treatment vs untreated controls. In kind it is in vivo, Digitaria sanguinalis. The method, boiled down:
as §1

Assay [4] relates to ALOMY. The experiment in a line: Post-emergence herbicidal action against ALOMY. In kind it is in vivo, Alopecurus myosuroides. As to conditions: 80 g/ha, visual assessment after about 3 weeks. The method, boiled down:
as §1

The next assay deals with VIOTR. The experiment in a line: Pre-emergence herbicidal action against VIOTR. The format is in vivo, Viola tricolor. As to conditions: 320 g/ha. The method, boiled down: as §2
Assay [5] has as its system ABUTH. The experiment in a line: Pre-emergence herbicidal action against ABUTH. In kind it is in vivo, Abutylon threophrasti. As to conditions: 320 g/ha. The text has this:
Seeds of monocotyledonous and dicotyledonous weed plants and crop plants are laid out in sandy loam soil in wood-fiber pots and covered with soil. The compounds of the invention, formulated in the form of wettable powders (WP) or as emulsion concentrates (EC), are then applied to the surface of the covering soil as aqueous suspension or emulsion at a water application rate equating to 600 to 800 L/ha with addition of 0.2% wetting agent.
After the treatment, the pots are placed in a greenhouse and kept under good growth conditions for the trial plants. The damage to the test plants is scored visually after a test period of 3 weeks by comparison with untreated controls (herbicidal activity in percent (%): 100% activity=the plants have died, 0% activity=like control plants).

In assay [6] the test system is ALOMY. The experiment in a line: Pre-emergence herbicidal action against ALOMY. In kind it is in vivo, Alopecurus myosuroides. The note with it: 320 g/ha, scored visually after 3 weeks vs untreated controls. The method, boiled down: as §2
Assay [7] concerns SETVI. Description: Pre-emergence herbicidal action against SETVI. The format is in vivo, Setaria viridis. The note with it: 320 g/ha, scored visually after 3 weeks vs untreated controls. The method, boiled down: as §2
Assay [8] has as its system LOLRI. Description: Post-emergence herbicidal action against LOLRI. In kind it is in vivo, Lolium rigidum. The note with it: 80 g/ha, visual assessment about 3 weeks after treatment vs untreated controls. The method, boiled down:
as §1

The test system of assay [9] is AVEFA. Description: Post-emergence herbicidal action against AVEFA. In kind it is in vivo, Avena fatua. As to conditions: 80 g/ha, visual assessment after about 3 weeks. The method, boiled down: as §1
Assay [10] deals with ECHCG. The experiment in a line: Pre-emergence herbicidal action against ECHCG. The format is in vivo, Echinochloa crus-galli. The note with it: 320 g/ha, scored visually after 3 weeks vs untreated controls. The method, boiled down:
as §2

The test system of assay [11] is DIGSA. The experiment in a line: Pre-emergence herbicidal action against DIGSA. The format is in vivo, Digitaria sanguinalis. The note with it: 320 g/ha, scored visually after 3 weeks vs untreated controls. The method, boiled down:
as §2

For assay [12], the system named is LOLRI. The experiment in a line: Pre-emergence herbicidal action against LOLRI (Table 8, titled post-emergence at 320 g/ha). The format is in vivo, Lolium rigidum. The note with it: table stands in the pre-emergence section. The method, boiled down: as §2
In assay [13] the test system is AVEFA. Description: Pre-emergence herbicidal action against AVEFA. In kind it is in vivo, Avena fatua. The note with it: 320 g/ha, scored visually after 3 weeks vs untreated controls. The method, boiled down: as §2
The subject of a further assay is HORMU. Description: Post-emergence herbicidal action against HORMU. In kind it is in vivo, Hordeum murinum. The note with it: 80 g/ha, visual assessment about 3 weeks after treatment vs untreated controls. The protocol:
Seeds of monocotyledonous and dicotyledonous weed and crop plants are laid out in sandy loam soil in wood-fiber pots, covered with soil and cultivated in a greenhouse under good growth conditions. 2 to 3 weeks after sowing, the test plants are treated at the one-leaf stage. The compounds of the invention, formulated in the form of wettable powders (WP) or as emulsion concentrates (EC), are then sprayed onto the green parts of the plants as aqueous suspension or emulsion at a water application rate equating to 600 to 800 l/ha with addition of 0.2% wetting agent. After the test plants have been left to stand in the greenhouse under optimal growth conditions for about 3 weeks, the action of the preparations is assessed visually in comparison to untreated controls (herbicidal action in percent (%): 100% activity=the plants have died, 0% activity=like control plants).

For assay [14], the system named is ABUTH. Description: Post-emergence herbicidal action against ABUTH. The format is in vivo, Abutylon threophrasti. As to conditions: 80 g/ha, visual assessment about 3 weeks after treatment vs untreated controls. The method, boiled down: as §1

Experimental findings from US20220386606A1, “SPECIFICALLY SUBSTITUTED 3-PHENYL-5-SPIROCYCLOPENTYL-3-PYRROLIN-2-ONES AND THEIR USE AS HERBICIDES” (Bayer Aktiengesellschaft, priority 2019, published 2022) are described below.

Turning to `CC#Cc1cc(Cl)c(C2=C(O)C3(CCC(COC)C3)NC2=O)c(OC)c1` (stereo not shown) [Example I-72], the “Post-emergence action against ECHCG in %” value in the assay with ECHCG [1] is given as 100%. Besides, the “Post-emergence action against SETVI in %” value with SETVI [2] is reported as 100%. In the assay on MATIN, the “Pre-emergence action against MATIN in %” value is 100%. For the same molecule, the “Post-emergence action against DIGSA in %” value in the assay with DIGSA [3] was 100%. In addition, the “Post-emergence action against ALOMY in %” value in the assay with ALOMY [4] is listed as 90%. For the same molecule, the “Pre-emergence action against VIOTR in %” value in the assay with VIOTR is 100%. The “Pre-emergence action against ABUTH in %” value in the assay on ABUTH [5] was 100%. The “Pre-emergence action against ALOMY in %” value in the assay on ALOMY [6] is 100%. The “Pre-emergence action against SETVI in %” value with SETVI [7] stood at 100%. Also, the “Post-emergence action against LOLRI in %” value with LOLRI [8] worked out at 100%. The “Post-emergence action against AVEFA in %” value in the assay with AVEFA [9] is 100%. For the same molecule, in the assay on ECHCG [10], the “Pre-emergence action against ECHCG in %” value is recorded as 100%. For the same molecule, the “Pre-emergence action against DIGSA in %” value in the assay with DIGSA [11] was found to be 100%. The “Pre-emergence herbicidal action against LOLRI in %” value with LOLRI [12] came out at 100%. In addition, the “Pre-emergence action against AVEFA in %” value in the assay with AVEFA [13] is recorded as 100%.
Regarding `CC#Cc1cc(C)c(C2=C(OC(=O)OCC)C3(CCC(COC)C3)NC2=O)c(Cl)c1` (stereo not shown) [Example P-24], the “Post-emergence action against ECHCG in %” value in the assay with ECHCG [1] turned out to be 100%. Besides, in the assay with SETVI [2], the “Post-emergence action against SETVI in %” value came out at 100%. Also, the “Post-emergence action against DIGSA in %” value with DIGSA [3] is reported as 100%. Besides, the “Post-emergence action against ALOMY in %” value in the assay with ALOMY [4] is 100%. Besides, in the assay on LOLRI [8], the “Post-emergence action against LOLRI in %” value is 100%. In the assay on AVEFA [9], the “Post-emergence action against AVEFA in %” value was found to be 100%. Also, the “Post-emergence action against HORMU in %” value in the assay on HORMU came to 100%.
For `CC#Cc1cc(Cl)c(C2=C(OC(=O)C(C)C)C3(CCC(COCC)C3)NC2=O)c(OC)c1` (stereo not shown) [Example P-25], the “Post-emergence action against ECHCG in %” value in the assay on ECHCG [1] came to 100%. Moreover, the “Post-emergence action against SETVI in %” value with SETVI [2] amounted to 100%. In addition, in the assay on DIGSA [3], the “Post-emergence action against DIGSA in %” value was determined as 100%. For the same molecule, the “Post-emergence action against ALOMY in %” value in the assay on ALOMY [4] worked out at 100%. For the same molecule, in the assay on ABUTH [14], the “Post-emergence action against ABUTH in %” value was 90%. In the assay with LOLRI [8], the “Post-emergence action against LOLRI in %” value worked out at 100%. Moreover, the “Post-emergence action against AVEFA in %” value in the assay with AVEFA [9] came out at 100%. Also, in the assay with HORMU, the “Post-emergence action against HORMU in %” value was 100%.
As to `CC#Cc1cc(Cl)c(C2=C(OC(=O)C(C)C)C3(CCC(COC)C3)NC2=O)c(CC)c1` (stereo not shown) [Example P-22], the “Post-emergence action against ECHCG in %” value in the assay on ECHCG [1] was found to be 100%. Besides, in the assay on SETVI [2], the “Post-emergence action against SETVI in %” value is 100%. Besides, in the assay with DIGSA [3], the “Post-emergence action against DIGSA in %” value came to 100%. Besides, in the assay with ALOMY [4], the “Post-emergence action against ALOMY in %” value is 100%. Further, the “Post-emergence action against LOLRI in %” value in the assay on LOLRI [8] was 100%. For the same molecule, the “Post-emergence action against AVEFA in %” value in the assay on AVEFA [9] came out at 100%. For the same molecule, the “Post-emergence action against HORMU in %” value with HORMU was determined as 100%.
In the case of `CC#Cc1cc(Cl)c(C2=C(OC(=O)OCC)C3(CCC(COCC)C3)NC2=O)c(CC)c1` (stereo not shown) [Example P-20], the “Post-emergence action against ECHCG in %” value in the assay on ECHCG [1] came to 100%. For the same molecule, in the assay with SETVI [2], the “Post-emergence action against SETVI in %” value was determined as 100%. For the same molecule, in the assay with DIGSA [3], the “Post-emergence action against DIGSA in %” value was 100%. The “Post-emergence action against ALOMY in %” value in the assay on ALOMY [4] turned out to be 100%. In addition, the “Post-emergence action against LOLRI in %” value in the assay on LOLRI [8] came to 100%. For the same molecule, the “Post-emergence action against AVEFA in %” value in the assay on AVEFA [9] was 100%. Further, in the assay with HORMU, the “Post-emergence action against HORMU in %” value turned out to be 100%.
In the case of `CC#Cc1cc(C)c(C2=C(OC(=O)C(C)C)C3(CCC(COCC)C3)NC2=O)c(Cl)c1` (stereo not shown) [Example P-03], in the assay on ECHCG [1], the “Post-emergence action against ECHCG in %” value stood at 100%. Further, the “Post-emergence action against SETVI in %” value in the assay on SETVI [2] stood at 100%. Moreover, the “Post-emergence action against DIGSA in %” value in the assay with DIGSA [3] worked out at 100%. Also, the “Post-emergence action against ALOMY in %” value in the assay on ALOMY [4] amounted to 100%. Further, the “Post-emergence action against ABUTH in %” value in the assay with ABUTH [14] turned out to be 80%. In addition, the “Post-emergence action against LOLRI in %” value with LOLRI [8] was found to be 100%. Besides, the “Post-emergence action against AVEFA in %” value in the assay with AVEFA [9] amounted to 100%. The “Post-emergence action against HORMU in %” value with HORMU is 100%.
